Experimental data taken from US10357486B2, “Treatment of cognitive impairment with PDE4 inhibitor” (Universiteit Maastricht, priority 2013, dated 2019).
Entries after “also recorded” stand apart in the source; their conditions may differ. Marks after values point to notes of the source that are not given here.

System: scopolamine induced memory deficit in male Wistar rats
Assay: Object recognition task (ORT), scopolamine induced memory deficit
Type: in vivo
Settings: for d2 (discrimination index): 1 h retention, mean (SEM)
Description: The objective of this study is to evaluate the efficacious dose range of roflumilast with regard to cognitive improvement effects by using scopolamine induced memory deficit on object memory performance in male Wistar rats. Memory acquisition processes are investigated using the object recognition test (ORT).
Maintenance of Animals: Sixteen 3-4 month old male Wistar rats (Charles River, Sulzfeld, Germany) were used for the study. All animals were housed individually in standard green line Tecniplast IVC cages on stardust bedding. The animals were housed on a reversed 12/12 h light/dark cycle (lights on from 07:00 pm to 07:00 am) and had free access to food and water. The rats were housed and tested in the same room. A radio, playing softly, provided background noise in the room. All testing was performed between 09:00 am and 06:00 pm.
Preparation of Compounds: Drugs were prepared daily, except as indicated otherwise. Roflumilast (Takeda, Konstanz, Germany, MW 403.21) was dissolved in 98% methylcellulose solution (0.5% methylcellulose) and 2% Tween 80. Roflumilast in doses of 0 (vehicle), 0.0001, 0.0003, 0.001, 0.003, 0.01 and 0.03 mg/kg was administered intraperitoneally (ip, injection volume 1 ml/kg). Scopolamine (in form of scopolamine hydrobromide) was dissolved in saline (0.9% NaCl). Scopolamine hydrobromide was administered intraperitoneally at a dose of 0.1 mg/kg (ip, injection volume 1 ml/kg). Scopolamine and roflumilast were administered 30 min before T1.
Object Recognition Task in Rats: The ORT was performed as described elsewhere (Ennaceur and Delaceur, 1988, Behav Brain Res, Vol 31, pp 47-59; Akkerman et al; 2012, Behav Brain Res, Vol 232, pp 335-347). The apparatus consisted of a circular arena, 83 cm in diameter. The back half of the 40 cm high wall was made of grey PVC and the front was made of transparent PVC. Fluorescent red tubes and a light bulb provided a constant illumination of about 20 lux on the floor of the apparatus. The light intensity was equal in the different parts of the apparatus.
Two objects were placed in symmetrical positions at the mid-line between the gray and transparent halves of the arena, about ten centimeters away from wall. Four different sets of objects were available: 1) a standard 1 L brown transparent glass bottle (diameter 10 cm, height 22 cm) filled with water, 2) a metal cube (10.0×5.0×7.5 cm) with two holes (diameter 1.9 cm), 3) a cone consisting of a gray PVC base (maximal diameter 18 cm) with a collar on top made of brass (total height 16 cm), and 4) an aluminium cube with a tapering top (13.0×8.0×8.0 cm). Objects were presented to the animals in a balanced manner to avoid object or place biases. Rats were unable to displace the objects.
A test session comprised two trials, each with durations of 3 min. During the learning trial (T1) the apparatus contains two identical objects (object al and a2). Rats were always introduced into the apparatus with their nose towards the transparent wall segment (i.e. facing outwards to the front of the arena). Subsequently, rats were put back in its home cage for a 1 h interval. After the retention interval, rats were put back into the arena for the […] (T2). In T2, the two objects from T1 were replaced by one identical copy (a3) and a different novel object (b). The times spent in exploring each object during T1 and T2 were recorded manually on a personal computer.
Exploration was defined in the following manner: directing the nose to the object at a distance of no more than 2 cm and/or touching the object with the nose. Sitting on the object was not considered as exploratory behavior. In order to avoid the presence of olfactory cues, the objects were thoroughly cleaned with a 70% ethanol solution before each trial.
Prior to compound testing, the animals were handled for 5 min on 2 consecutive days and allowed to explore the ORT arena, also for 5 min. […]

O=C(Nc1c(Cl)cncc1Cl)c1ccc(OC(F)F)c(OCC2CC2)c1 [roflumilast, N-(3,5-dichloropyridin-4-yl)-3-cyclopropylmethoxy-4-difluoromethoxybenzamide]
d2 value compared to the vehicle condition (post-hoc Bonferroni t-test) (0.0001 mg/kg ip + scopolamine): significantly lower
d2 value compared to the scopolamine condition (post-hoc Bonferroni t-test) (0.003 mg/kg ip + scopolamine): significantly higher
d2 value compared to the scopolamine condition (post-hoc Bonferroni t-test) (0.01 mg/kg ip + scopolamine): significantly higher
d2 value compared to the scopolamine condition (post-hoc Bonferroni t-test) (0.03 mg/kg ip + scopolamine): significantly higher
d2 (discrimination index) (roflumilast 0.0001 mg/kg ip + scopolamine 0.1 mg/kg ip): 0.05 (0.05)
d2 (discrimination index) (roflumilast 0.0003 mg/kg ip + scopolamine 0.1 mg/kg ip): 0.16 (0.06) #
d2 (discrimination index) (roflumilast 0.001 mg/kg ip + scopolamine 0.1 mg/kg ip): 0.27 (0.06) ###
d2 (discrimination index) (roflumilast 0.003 mg/kg ip + scopolamine 0.1 mg/kg ip): 0.43 (0.06) ###
d2 (discrimination index) (roflumilast 0.01 mg/kg ip + scopolamine 0.1 mg/kg ip): 0.34 (0.06) ###
d2 (discrimination index) (roflumilast 0.03 mg/kg ip + scopolamine 0.1 mg/kg ip): 0.30 (0.07) ###
effect on memory function in rats treated with scopolamine (ORT) (single ip dose 0.0001 mg/kg, 0.0001 mg/kg): No effect
effect on memory function in rats treated with scopolamine (ORT) (single ip dose 0.0003 mg/kg, 0.0003 mg/kg): intermediate memory improvement; also recorded: increasingly less efficacy
effect on memory function in rats treated with scopolamine (ORT) (single ip dose 0.001 mg/kg, 0.001 mg/kg): intermediate memory improvement; also recorded: increasingly less efficacy
effect on memory function in rats treated with scopolamine (ORT) (single ip dose 0.003 mg/kg, 0.003 mg/kg): fully restore memory function
effect on memory function in rats treated with scopolamine (ORT) (single ip dose 0.01 mg/kg): increasingly less efficacy
effect on memory function in rats treated with scopolamine (ORT) (single ip dose 0.03 mg/kg): increasingly less efficacy
